Experimental data published in patent EP1331219A1.
Where a name gives a salt, the structure may show the parent alone.

Assays:
Type in all cases: binding, mouse
[1] = test system: murine monoclonal antibody 6H5D1C4 (DASM243-6H5D1C4); assay: Competition ELISA on BSA-Met1 coated plates: cross reactivity with methamphetamine analogs; conditions: methamphetamine recognized more than ecstasy
[2] = molecular target: murine monoclonal antibody DASM243-6H5D1C4 (IgG2b), raised against TT-Met1; assay: RIA: affinity determination by competition between labeled and unlabeled metabolite; conditions: purified mAb, calculated by the method of Müller from IC50
[3] = molecular target: murine monoclonal antibody DASM243-A10A6A2 (IgG1), raised against TT-Met1; assay: as above; conditions: purified mAb, calculated by the method of Müller from IC50

Structure (SMILES)	recognition of methamphetamine relative to ecstasy [1] [times]	Ka [2] [M⁻¹]	Ka [3] [M⁻¹]
CN[C@@H](C)Cc1ccccc1 [Methamphetamine, methamphetamine]	10		
CNC(C)Cc1ccccc1 (stereo not drawn) [methamphetamine oxalate]		2.58e+08	5.58e+06
